Measured values as given in patent US20230127046A1, “G9a INHIBITOR” (RIKEN, priority 2019, published 2023).
pIC50: −log10 of the molar value.

target: T1, recombinant human G9a protein (Homo sapiens, UniProt Q96KQ7); assay: G9a inhibitory activity test (ALPHA); format: biochemical; details: biotinylated histone H3 peptide (1-21), SAM, read-out: Inhibitory activity (G9a IC50 value)
T1 construct: purchased BPS Bioscience Inc. #51001
T1 sequence (Q96KQ7 785-1210 limits assumed): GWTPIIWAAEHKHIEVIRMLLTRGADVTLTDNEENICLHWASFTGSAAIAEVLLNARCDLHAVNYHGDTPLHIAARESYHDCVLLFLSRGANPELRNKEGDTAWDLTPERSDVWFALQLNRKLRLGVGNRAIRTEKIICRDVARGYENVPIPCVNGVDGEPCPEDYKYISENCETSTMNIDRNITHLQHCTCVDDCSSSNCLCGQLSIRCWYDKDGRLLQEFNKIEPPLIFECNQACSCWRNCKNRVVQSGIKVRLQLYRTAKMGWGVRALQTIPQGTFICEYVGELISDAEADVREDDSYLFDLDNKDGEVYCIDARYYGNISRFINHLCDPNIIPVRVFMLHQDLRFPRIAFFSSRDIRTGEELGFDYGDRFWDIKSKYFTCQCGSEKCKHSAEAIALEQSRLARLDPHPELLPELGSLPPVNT
Method in brief: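 Human G9a (0.05 to 0.1 nM) in Tris pH 9.0 buffer preincubated with compound 10 min, then biotinylated histone H3 (1-21) peptide and SAM mixed 1:1 from 500 nM and 150 μM solutions, 1 h at room temperature. H3K9me2 detected by AlphaLISA acceptor/streptavidin donor beads; IC50 from percent inhibition relative to no-compound and no-enzyme controls.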

`CCCCC(NC(=O)c1[nH]c2c(c1C)C(=O)CC(C)(C)C2)C(=O)Nc1cccc2cnccc12` (stereo not drawn) [Example 1-94] and `CCCCC(NC(=O)c1[nH]c2c(c1C)C(=O)CC(C)(C)C2)C(=O)Nc1cccc(C)c1OC` (stereo not drawn) [Example 1-28] cannot be ordered by pIC50: at most 6.70 for the first, at most 6.70 for the second.

`CCCCC(NC(=O)c1[nH]c2c(c1C)C(=O)CC(C)(C)C2)C(=O)NCc1ccc(OCCN(C)C)cc1` (stereo not drawn) [Example 1-18] and `CCCCC(NC(=O)c1[nH]c2c(c1C)C(=O)CC(C)(C)C2)C(=O)NCc1cccc(OC)c1` (stereo not drawn) [Example 1-45] cannot be ordered by pIC50: 6.70 to 7.30 for the first, at most 6.70 for the second.

`CCCCC(NC(=O)c1[nH]c2c(c1C)C(=O)CC(C)(C)C2)C(=O)Nc1nn(CC)c2ccccc12` (stereo not drawn) [Example 1-97] and `CCCCC(NC(=O)c1[nH]c2c(c1C)C(=O)CC(C)(C)C2)C(=O)NCc1ccccc1Cl` (stereo not drawn) [Example 1-41] cannot be ordered by pIC50: at most 6.70 for the first, at most 6.70 for the second.

Compared with `O=C(NC(CCC1CC1)C(=O)Nc1ccc(O)nc1)c1ccc(Nc2ccncc2)cc1` (stereo not drawn) [Example 1-89], `CSc1ccc(NC(=O)C(CCC2CC2)NC(=O)c2[nH]c3c(c2C)C(=O)CC(C)(C)C3)cn1` (stereo not drawn) [Example 1-72] is lower in pIC50: over 7.30 for the first, at most 6.70 for the second. The first is the more potent here.

`CCCCC(NC(=O)c1[nH]c2c(c1C)C(=O)CC(C)(C)C2)C(=O)Nc1ccccc1CN1CCN(C)CC1` (stereo not drawn) [Example 1-102] and `CCCCC(NC(=O)c1[nH]c2c(c1C)C(=O)CC(C)(C)C2)C(=O)Nc1cccc(C)c1C` (stereo not drawn) [Example 1-25] cannot be ordered by pIC50: at most 6.70 for the first, at most 6.70 for the second.

`CCCCC(NC(=O)c1[nH]c2c(c1C)C(=O)CC(C)(C)C2)C(=O)NCc1ccc2ccccc2c1` (stereo not drawn) [Example 1-50] and `CCCCC(NC(=O)c1[nH]c2c(c1C)C(=O)CC(C)(C)C2)C(=O)Nc1ccc(C)cc1` (stereo not drawn) [Example 1-21] cannot be ordered by pIC50: at most 6.70 for the first, at most 6.70 for the second.

Compared with `CCCCC(NC(=O)c1[nH]c2c(c1C)C(=O)CC(C)(C)C2)C(=O)Nc1ccc(OC2CN(C)C2)nc1` (stereo not drawn) [Example 1-3], `CCCCC(NC(=O)c1[nH]c2c(c1C)C(=O)CC(C)(C)C2)C(=O)Nc1ccc(N(C)C2CCN(C)CC2)nc1` (stereo not drawn) [Example 1-20] is higher in pIC50: 6.70 to 7.30 for the first, over 7.30 for the second.

`CCCCC(NC(=O)c1[nH]c2c(c1C)C(=O)CC(C)(C)C2)C(=O)Nc1cccc(C(=O)OC)c1C` (stereo not drawn) [Example 1-106] and `CCCCC(NC(=O)c1[nH]c2c(c1C)C(=O)CC(C)(C)C2)C(=O)Nc1cc(C)ccc1OC` (stereo not drawn) [Example 1-38] cannot be ordered by pIC50: at most 6.70 for the first, at most 6.70 for the second.

`Cc1c(C(=O)NC(CCC2CC2)C(=O)NCc2ccc(CN(C)C)cc2)[nH]c2c1C(=O)CC(C)(C)C2` (stereo not drawn) [Example 1-67] and `Cc1c(C(=O)NC(CCC2CC2)C(=O)Nc2ccc(OC3CCN(C)CC3)cc2)[nH]c2c1C(=O)CC(C)(C)C2` (stereo not drawn) [Example 1-85] cannot be ordered by pIC50: over 7.30 for the first, over 7.30 for the second.

Work on `Cc1c(C(=O)NC(C(=O)Nc2ccc(OC3CCN(C)CC3)nc2)c2ccccc2)[nH]c2c1C(=O)CC(C)(C)C2` (stereo not drawn) [Example 1-86] yielded a pIC50 of at most 6.70.

same assay, conditions: read-out: Inhibitory activity (G9a IC50)

`CCCCC(NC(=O)c1[nH]c2c(c1C)C(=O)CC(C)(C)C2)C(=O)Nc1cccc2c1CCN(C(=O)OC(C)(C)C)C2` (stereo not drawn) [Example 1-115] and `CCCCC(NC(=O)c1[nH]c2c(c1C)C(=O)CC(C)(C)C2)C(=O)Nc1cccc2c1CCNC2` (stereo not drawn) [Example 25-1, 3,6,6-trimethyl-4-oxo-N-[1-oxo-1-(1,2,3,4-tetrahydroisoquinolin-5-ylamino)hexan-2-yl]-5,7-dihydro-1H-indole-2-carboxamide] cannot be ordered by pIC50: at most 6.70 for the first, at most 6.70 for the second.

`Cc1c(C(=O)N[C@H](CCC2CC2)C(=O)N(C)[C@@H](C)c2ccccc2)[nH]c2c1C(=O)CC(C)(C)C2` [Example 13-6] and `Cc1c(C(=O)NC(CCC2CCC2)C(=O)Nc2ccccc2)[nH]c2c1C(=O)CC(C)(C)C2` (stereo not drawn) [Example 6-24] cannot be ordered by pIC50: at most 6.70 for the first, at most 6.70 for the second.

`CN(C)c1ccc(NC(=O)C(CCC2CC2)NC(=O)c2ccc(Nc3ccncc3)cc2)cn1` (stereo not drawn) [Example 6-85] and `O=C(NC(CCC1CC1)C(=O)Nc1ccc(C(F)(F)F)nc1)c1ccc(Nc2ccncc2)cc1` (stereo not drawn) [Example 6-81] cannot be ordered by pIC50: over 7.30 for the first, over 7.30 for the second.

`Cc1c(C(=O)NC(CCC2CC2)C(=O)N2CCc3c(OCCN4CCCC4)cccc32)[nH]c2c1C(=O)CC(C)(C)C2` (stereo not drawn) [Example 1-120] and `Cc1c(C(=O)NC(CCC2CC2)C(=O)N2CCc3c(OCCCN4CCCCC4)cccc32)[nH]c2c1C(=O)CC(C)(C)C2` (stereo not drawn) [Example 1-118] cannot be ordered by pIC50: 6.70 to 7.30 for the first, at most 6.70 for the second.

`CCCCC(NC(=O)c1[nH]c2c(c1C)C(=O)CC(C)(C)C2)C(=O)NCc1ccc(N2CCNCC2)cc1` (stereo not drawn) [Example 26-7] and `CCCCC(NC(=O)c1[nH]c2c(c1C)C(=O)CC(C)(C)C2)C(=O)NCc1ccc(CN)cc1` (stereo not drawn) [Example 24-2] cannot be ordered by pIC50: over 7.30 for the first, over 7.30 for the second.

`CCCCC(NC(=O)Cc1ccc(Cl)cc1)C(=O)Nc1ccc(OC2CCN(C)CC2)nc1` (stereo not drawn) [Example 11-9] and `CCCCC(NC(=O)Cc1ccccc1N)C(=O)Nc1ccc(OC2CCN(C)CC2)nc1` (stereo not drawn) [Example 29] cannot be ordered by pIC50: at most 6.70 for the first, at most 6.70 for the second.

`CCCCC(NC(=O)c1ccc(N2CCN(C)CC2)cc1C)C(=O)Nc1ccc(OC2CCN(C)CC2)nc1` (stereo not drawn) [Example 11-1, 2-methyl-4-(4-methylpiperazin-1-yl)-N-[1-[[6-(1-methylpiperidin-4yl)oxypyridin-3-yl]amino]-1-oxohexan-2-yl]benzamide] and `CCCCC(NC(=O)Cc1ccccc1C)C(=O)Nc1ccc(OC2CCN(C)CC2)nc1` (stereo not drawn) [Example 11-7] cannot be ordered by pIC50: at most 6.70 for the first, at most 6.70 for the second.

First: Cc1c(C(=O)NC(CCC2CC2)C(=O)N2CCc3c(OCCN(C)C)cccc32)[nH]c2c1C(=O)CC(C)(C)C2 (stereo not drawn) [Example 1-122]
Second: Cc1c(C(=O)NC(CCC2CC2)C(=O)N2CCc3c(CN4CCCC4)cccc32)[nH]c2c1C(=O)CC(C)(C)C2 (stereo not drawn) [Example 1-126]
The pIC50 of the first is lower: 6.70 to 7.30 for the first, over 7.30 for the second. The second is the more potent here.

`Cc1ccc2nc(C(CCC3CC3)NC(=O)c3[nH]c4c(c3C)C(=O)CC(C)(C)C4)n(C)c2c1` (stereo not drawn) [Example 30-4] and `Cc1cc(C)c(NC(=O)C(CCC2CC2)NC(=O)c2[nH]c3c(c2C)C(=O)CC(C)(C)C3)cn1` (stereo not drawn) [Example 6-14] cannot be ordered by pIC50: at most 6.70 for the first, 6.70 to 7.30 for the second.

`CCCC[C@@H](NC(=O)c1[nH]c2c(c1C)C(=O)CC(C)(C)C2)C(=O)N[C@@H](C)c1ccccc1` [Example 2-2, 3,6,6-trimethyl-4-oxo-N-((R)-1-oxo-1-(((S)-1-phenylethyl)amino)hexan-2-yl)-4,5,6,7-tetrahydro-1H-indol-2-carboxamide] and `CCCC[C@H](NC(=O)c1[nH]c2c(c1C)C(=O)CC(C)(C)C2)C(=O)N[C@@H](CO)c1ccccc1` [Example 6-45] cannot be ordered by pIC50: at most 6.70 for the first, 6.70 to 7.30 for the second.

`Cc1c(C(=O)NC(CCC2CC2)C(=O)N2CCc3cc(CN4CCOCC4)ccc32)[nH]c2c1C(=O)CC(C)(C)C2` (stereo not drawn) [Example 1-143] and `CCCC[C@H](NC(=O)c1[nH]c2c(c1C)C(=O)CC(C)(C)C2)C(=O)N1CCc2c(OCCN3CCCC3)cccc21` [Example 6-103] cannot be ordered by pIC50: at most 6.70 for the first, at most 6.70 for the second.

`CCCCC(NC(=O)Cc1ccccc1)C(=O)Nc1ccc(OC2COC2)nc1` (stereo not drawn) [Example 10, N-[6-(oxetan-3-yloxy)pyridin-3-yl]-2-[(2-phenylacetyl)amino]hexaneamide] and `COc1ccc(NC(=O)C(CCC2CC2)NC(=O)Cc2ccccc2)cn1` (stereo not drawn) [Example 8, 4-cyclopropyl-N-(6-methoxypyridin-3-yl)-2-[(2-phenylacetyl)amino]butaneamide] cannot be ordered by pIC50: 6.70 to 7.30 for the first, at most 6.70 for the second.

`COc1ccc(NC(=O)C(CCC2CC2)NC(=O)c2sc(-c3ccccc3)nc2C)cn1` (stereo not drawn) [Example 6-61] and `COc1ccc(NC(=O)C(CCC2CC2)NC(=O)c2ccc(Nc3ccncc3C(F)(F)F)cc2)cn1` (stereo not drawn) [Example 6-71] cannot be ordered by pIC50: at most 6.70 for the first, at most 6.70 for the second.

`CCCC[C@H](NC(=O)c1[nH]c2c(c1CC)C(=O)CC(C)(C)C2)C(=O)N[C@@H](CO)c1ccccc1` [Example 6-46] and `CCCCC(NC(=O)c1[nH]c2c(c1C)C(=O)CC(C)(C)C2)C(=O)N[C@H](CO)c1ccccc1` (stereo partly drawn) [Example 3-2] cannot be ordered by pIC50: 6.70 to 7.30 for the first, at most 6.70 for the second.

First: Cc1c(C(=O)N[C@@H](CCC2CC2)C(=O)NC2CCN(C)CC2)[nH]c2c1C(=O)CC(C)(C)C2 [Example 6-27]
Second: Cc1c(C(=O)NC(CCC2CC2)C(=O)NCc2cccc(CN(C)C)c2)[nH]c2c1C(=O)CC(C)(C)C2 (stereo not drawn) [Example 1-148]
The pIC50 of the first is lower: 6.70 to 7.30 for the first, over 7.30 for the second. The second is the more potent here.

First: CC(C)c1c(C(=O)N[C@@H](CCC2CC2)C(=O)Nc2ccc(C#N)cc2)[nH]c2c1C(=O)CC(C)(C)C2 [Example 15-4]
Second: CCCCC(NC(=O)c1[nH]c2c(c1C)C(=O)CC(C)(C)C2)C(=O)NCc1ccc(CCN)cc1 (stereo not drawn) [Example 24-3]
The pIC50 of the first is lower: 6.70 to 7.30 for the first, over 7.30 for the second. The second is the more potent here.

First: CN1CCC(Oc2ccc(NC(=O)C(CCC3CC3)NC(=O)c3ccc(Nc4ccncc4)cc3)cn2)CC1 (stereo not drawn) [Example 6-87]
Second: CCCCC(NC(=O)CC1CCCCC1)C(=O)Nc1ccc(OC2CCN(C)CC2)nc1 (stereo not drawn) [Example 11-2]
The pIC50 of the first is higher: over 7.30 for the first, at most 6.70 for the second.

`CCCC[C@H](NC(=O)c1[nH]c2c(c1C)C(=O)CC(C)(C)C2)c1nc2ccc(OCCN(C)C)cc2[nH]1` [Example 37-4] and `CCCC[C@H](NC(=O)c1[nH]c2c(c1C)C(=O)CC(C)(C)C2)c1nc2ccc(OC3CCN(C)CC3)cc2[nH]1` [Example 34-4] cannot be ordered by pIC50: at most 6.70 for the first, at most 6.70 for the second.

`CCCCC(NC(=O)c1[nH]c2c(c1C)C(=O)CC(C)(C)C2)C(=O)Nc1cccnc1CC` (stereo not drawn) [Example 6-23] and `CCCCC(NC(=O)c1[nH]c2c(c1C)C(=O)CC(C)(C)C2)C(=O)NCc1cccc(CN(C)C)n1` (stereo not drawn) [Example 4, N-[1-[[6-[(dimethylamino)methyl]pyridine-2yl]methylamino]-1-oxohexan-2-yl]-3,6,6-trimethyl-4-oxo-5,7-dihydro-1H-indole-2-carboxamide] cannot be ordered by pIC50: at most 6.70 for the first, at most 6.70 for the second.
